Assay results from patent US6258785A, “Crystalline 9-E-(O-methyl)oxime of 11, 12-dideoxy-3-de(2,6-dideoxy-3-C-methyl-3-O-methyl-α-L-ribohexopyrano syloxy)-6-O-methyl-12,11-(iminocarbonyl-(2-(3-(4-(3-pyridinyl)1H-imadazol-1 -yl)propyl)hydrazono))-3-oxoerythromycin” (Pfizer Inc., priority 1999, dated 2001).
Where a name gives a salt, the structure may show the parent alone.

How the values were obtained:
[1] = Hygroscopicity of crystalline form; assay type: physicochemical; settings: crystalline hemihydrate form of the free base
[2] = assay type: physicochemical; settings: phosphate buffer, pH 6.5
Method: Amorphous 9-E-(O-methyl)oxime of 11,12-dideoxy-3-de(2,6-dideoxy-3-C-methyl-3-O-methyl-α-L-ribohexopyranosyloxy)-6-O-methyl-12,11-(iminocarbonyl-(2-(3-(4-(3-pyridinyl)-1H-imidazol-1-yl)propyl)hydrazono))-3-oxoerythromycin (130 g) was suspended in 3L of isopropyl ether containing 3% ethanol. The suspension was heated to 60° C. overnight and stirring was continued at room temperature (about 20-25° C.) for an additional 3 days. The resulting solid was collected by filtration to give 81 g of the title compound; mp 177° C. […] The crystals were characterized by the powder X-ray diffraction pattern noted below.
To a solution of amorphous 9-E-(O-methyl)oxime of 11,12-dideoxy-3-de(2,6-dideoxy-3-C-methyl-3-O-methyl-α-L-ribohexopyranosyloxy)-6-O-methyl-12,11-(iminocarbonyl-(2-(3-(4-(3-pyridinyl)-1H-imidazol-1-yl)propyl)hydrazono))-3-oxoerythromycin (200 mg) in 3 mL of CH2 Cl2 was added 1.19 mL of 2M solution of methanesulfonic acid in CH2 Cl2. The solution was stirred at room temperature (about 20-25° C.) for 15 minutes, and the solvent was evaporated. The residue was dissolved in 2 mL of ethyl acetate, and to this solution was added 1 mL of isopropyl ether. The solution was concentrated to approximately 0.5 mL and was left standing at room temperature (about 20-25° C.). The resulting crystals were collected by filtration to 175 mg of the title compound; mp: 193-194° C. […]

Row | hygroscopicity [1] | water solubility of the resulting crystals [2] | SMILES
1 | non-hygroscopic | greater than 11 mg/ml | CC[C@H]1OC(=O)[C@H](C)C(=O)[C@H](C)[C@@H](O[C@@H]2O[C@H](C)C[C@H](N(C)C)[C@H]2O)[C@](C)(OC)C[C@@H](C)/C(=N\OC)[C@H](C)[C@H]2N(NCCCn3cnc(-c4cccnc4)c3)C(=O)N[C@]12C [Example 1, 9-E-(O-Methyl)oxime of 11,12-Dideoxy-3-de(2. 6-dideoxy-3-C-methyl-3-O-methyl-α-L-ribohexopyranosyloxy)-6-O-methyl-12,11-(iminocarbonyl-(2-(3-(4-(3-pyridinyl)-1H-imidazol-1-yl)propyl)hydrazono))-3-oxoerythromycin hemihydrate]
2 |  | 24 mg/mL | CC[C@H]1OC(=O)[C@H](C)C(=O)[C@H](C)[C@@H](O[C@@H]2O[C@H](C)C[C@H](N(C)C)[C@H]2O)[C@](C)(OC)C[C@@H](C)/C(=N\OC)[C@H](C)[C@H]2N(NCCCn3cnc(-c4cccnc4)c3)C(=O)N[C@]12C [Example 2, Methanesulfonic Acid Salt of 9-E-(O-Methyl)oxime of 11,12-dideoxy-3-de(2,6-dideoxy-3-C-methyl-3-O-methyl-α-L-ribohexopyranosyloxy)-6-O-methyl-12,11-(iminocarboxyl-(2-(3-(4-(3-pyridinyl)-1H-imidazol-1-yl)-propyl)hydrazo))-3-oxoerythromycin]
